Reference: EPA's ToxRefDB 2

Key:
rat [1] = settings: Combined chronic toxicity/carcinogenicity, sprague dawley, Oral, Feed, dose end: 113 week, group: systemic
mouse [2] = settings: Multigenerational reproductive toxicity study; cd1; Oral; Feed; dose end: 1 generation; group: offspring; systemic / in life observation / body weight / offspring (pup) weight
rat [3] = settings: Prenatal developmental toxicity study; other; Oral; Water; dose end: 19 GD; group: maternal; systemic / in life observation / water consumption / water consumption
rat [4] = settings: Prenatal developmental toxicity study; other; Oral; Gavage/Intubation; dose end: 19 GD; group: maternal; systemic / in life observation / food consumption / food consumption
mouse [5] = settings: Combined chronic toxicity/carcinogenicity, cd1, Oral, Feed, dose end: 104 week, group: systemic
mouse [6] = settings: Subchronic oral toxicity in rodents, b6c3f1, Gavage/Intubation, dose end: 3 month, group: systemic
rat [7] = settings: Subchronic oral toxicity in rodents, fischer, Gavage/Intubation, dose end: 3 month, group: systemic
mouse [8] = settings: Carcinogenicity; cd1; Oral; Feed; dose end: 24 month; group: systemic; systemic / in life observation / body weight / body weight + systemic / pathology microscopic / kidney / basophilia + systemic / pathology …
rat [9] = settings: Multigenerational reproductive toxicity study, sprague dawley, Oral, Feed, dose end: 2 generation
rat [10] = settings: Subchronic oral toxicity in rodents, sprague dawley, Feed, dose end: 3 month, group: systemic, systemic / clinical chemistry / glucose / glucose + systemic / clinical chemistry / phosphorus / phosphorus + systemic / clinical chemistry…
rat [11] = settings: Prenatal developmental toxicity study, sprague dawley, Oral, Gavage/Intubation, dose end: 19 GD
rat [12] = settings: Combined chronic toxicity/carcinogenicity, sprague dawley, Oral, Feed, dose end: 24 month, group: systemic
[13] = systemic / in life observation / body weight / body weight + systemic / in life observation / clinical signs / feces, discoloration + …
[14] = systemic / in life observation / clinical signs / fur (altered appearance)
[15] = systemic / in life observation / clinical signs / fur (altered appearance) + systemic / in life observation / clinical signs / skin …
[16] = systemic / in life observation / body weight / body weight + systemic / in life observation / body weight / body weight gain + systemic / in…
[17] = systemic / clinical chemistry / alanine aminotransferase (alt/sgpt) / alanine aminotransferase (alt/sgpt) + systemic / clinical chemistry / …
[18] = systemic / pathology microscopic / liver / hyperplasia + systemic / pathology microscopic / liver / inflammation + systemic / hematology / …
[19] = group: offspring, systemic / in life observation / body weight / offspring (pup) weight + systemic / in life observation / body weight / offspring (pup) …
[20] = group: parental, systemic / in life observation / body weight / body weight + systemic / in life observation / clinical signs / soft stools
[21] = group: parental, systemic / in life observation / body weight / body weight + systemic / in life observation / clinical signs / soft stools + systemic / in …
[22] = group: developmental, developmental / developmental malformation / bone / unossified + systemic / in life observation / body weight / fetal weight
[23] = group: maternal, systemic / in life observation / body weight / body weight gain + systemic / in life observation / clinical signs / defecation (diarrhea) + …
[24] = systemic / pathology microscopic / stomach / inflammation
[25] = systemic / pathology microscopic / stomach / inflammation + systemic / in life observation / body weight / body weight + systemic / in life …

SMILES: O=C([O-])c1[nH]n(-c2ccc(S(=O)(=O)[O-])cc2)c(=O)c1N=Nc1ccc(S(=O)(=O)[O-])cc1.[Na+].[Na+].[Na+] [FD&C Yellow 5]
- LOAEL (rat [1]; [13]): > 2640 mg/kg/day
- NOAEL (rat [1]; [13]): ≥ 2640 mg/kg/day
- LEL (rat [1]; [14]): 48 mg/kg/day
- NEL (rat [1]; [14]): < 48 mg/kg/day
- LEL (mouse [2]): 771 mg/kg/day
- LOAEL (mouse [2]): > 771 mg/kg/day
- NEL (mouse [2]): 260 mg/kg/day
- NOAEL (mouse [2]): ≥ 771 mg/kg/day
- LEL (rat [3]): 1060 mg/kg/day
- LOAEL (rat [3]): > 1060 mg/kg/day
- NEL (rat [3]): 568 mg/kg/day
- NOAEL (rat [3]): ≥ 1060 mg/kg/day
- LEL (rat [4]): 1000 mg/kg/day
- LOAEL (rat [4]): > 1000 mg/kg/day
- NEL (rat [4]): 600 mg/kg/day
- NOAEL (rat [4]): ≥ 1000 mg/kg/day
- LOAEL (mouse [5]; [13]): > 8100 mg/kg/day
- NOAEL (mouse [5]; [13]): ≥ 8100 mg/kg/day
- LEL (mouse [5]; [15]): 714 mg/kg/day
- NEL (mouse [5]; [15]): < 714 mg/kg/day

SMILES: C=CCc1ccc(OC)cc1 [Estragole]
- LOAEL (mouse [6]; [16]): > 600 mg/kg/day
- NEL (mouse [6]; [16]): 37.5 mg/kg/day
- NOAEL (mouse [6]; [16]): ≥ 600 mg/kg/day
- LEL (mouse [6]; systemic / in life observation / body weight / body weight + systemic / in life observation / body weight / body weight gain + systemic / …): 75 mg/kg/day
- LOAEL (rat [7]; [17]): > 600 mg/kg/day
- NOAEL (rat [7]; [17]): ≥ 600 mg/kg/day
- LEL (rat [7]; [18]): 37.5 mg/kg/day
- NEL (rat [7]; [18]): < 37.5 mg/kg/day

SMILES: O=C(O)CNCP(=O)(O)O [Glyphosate]
- LEL (mouse [8]): 4500 mg/kg/day
- LOAEL (mouse [8]): 4500 mg/kg/day
- NEL (mouse [8]): 750 mg/kg/day
- NOAEL (mouse [8]): 750 mg/kg/day
- LEL (rat [9]; [19]): 1500 mg/kg/day
- LOAEL (rat [9]; [19]): 1500 mg/kg/day
- NEL (rat [9]; [19]): 500 mg/kg/day
- NOAEL (rat [9]; [19]): 500 mg/kg/day
- NEL (rat [9]; [20]): 500 mg/kg/day
- NOAEL (rat [9]; [20]): 500 mg/kg/day
- LEL (rat [9]; [21]): 1500 mg/kg/day
- LOAEL (rat [9]; [21]): 1500 mg/kg/day
- LEL (rat [10]): 63 mg/kg/day
- LOAEL (rat [10]): > 1270 mg/kg/day
- NEL (rat [10]): < 63 mg/kg/day
- NOAEL (rat [10]): ≥ 1270 mg/kg/day
- LEL (rat [11]; [22]): 3500 mg/kg/day
- LOAEL (rat [11]; [22]): 3500 mg/kg/day
- NEL (rat [11]; [22]): 1000 mg/kg/day
- NOAEL (rat [11]; [22]): 1000 mg/kg/day
- LEL (rat [11]; [23]): 3500 mg/kg/day
- LOAEL (rat [11]; [23]): 3500 mg/kg/day
- NEL (rat [11]; [23]): 1000 mg/kg/day
- NOAEL (rat [11]; [23]): 1000 mg/kg/day
- LEL (rat [12]; [24]): 457 mg/kg/day
- LOAEL (rat [12]; [24]): 457 mg/kg/day
- NEL (rat [12]; [25]): 113 mg/kg/day
- NOAEL (rat [12]; [25]): 113 mg/kg/day
